molecular target: Glutamate NMDA receptor; test: Antagonist activity at NMDA receptor in Wistar rat cerebellar granule neurons assessed as inhibition of NMDA-induced intracellular calcium by Fura-2 fluorescence assay; type: cell-based

| SMILES | IC50 |
| --- | --- |
| Cn1cc(C[C@@H]2CO[C@H]3CCCC(=O)N23)c2ccccc21 | > 450 µM |
| COC(=O)C[C@@H]1CC(=O)N2[C@H](Cc3c[nH]c4ccccc34)CO[C@@H]2C1 | > 450 µM |
| O=C1CCC[C@@H]2OC[C@H](Cc3c[nH]c4ccccc34)N12 | 305 µM |
| O=C1CCC[C@H]2OC[C@H](Cc3c[nH]c4ccccc34)N12 | 429 µM |
| CC[C@H]1CCC(=O)N2[C@H](Cc3c[nH]c4ccccc34)CO[C@H]12 | > 450 µM |
| COC(=O)C[C@@H]1CC(=O)N2[C@@H](Cc3c[nH]c4ccccc34)CO[C@@H]2C1 | > 450 µM |
| COC(=O)C[C@H]1CC(=O)N2[C@H](Cc3c[nH]c4ccccc34)CO[C@H]2C1 | > 450 µM |

More lines, now with the values ahead:

| IC50 | SMILES |
| --- | --- |
| > 450 µM | CC[C@H]1CCC(=O)N2[C@@H](Cc3c[nH]c4ccccc34)CO[C@H]12 |
| > 450 µM | CC[C@@H]1CCC(=O)N2[C@H](Cc3c[nH]c4ccccc34)CO[C@@H]12 |
| > 450 µM | O=C1CCC[C@H]2OC[C@@H](Cc3c[nH]c4ccccc34)N12 |
| > 450 µM | Cc1ccc(S(=O)(=O)n2cc(C[C@@H]3CO[C@H]4CCCC(=O)N34)c3ccccc32)cc1 |
| 63.4 µM | O=C1CCC[C@@H]2OC[C@@H](Cc3c[nH]c4ccccc34)N12 |
| > 450 µM | COC(=O)C[C@H]1CC(=O)N2[C@@H](Cc3c[nH]c4ccccc34)CO[C@@H]2C1 |
| 341 µM | O=C1CC[C@@H]2OC[C@@H](Cc3c[nH]c4ccccc34)N12 |
| > 450 µM | CC[C@@H]1CCC(=O)N2[C@@H](Cc3c[nH]c4ccccc34)CO[C@@H]12 |

molecular target: Glutamate NMDA receptor (Rattus norvegicus) (UniProt P35439+Q00959+Q00960+Q00961+Q62645+Q8VHN2+Q9R1M7); test: Ratio of amantadine IC50 to compound IC50 for NMDA receptor in Wistar rat cerebellar granule neurons assessed as inhibition of NMDA-induced intracellular calcium by Fura-2 fluorescence assay; type: cell-based

| Ratio IC50 | SMILES |
| --- | --- |
| 1.5 | O=C1CCC[C@@H]2OC[C@@H](Cc3c[nH]c4ccccc34)N12 |
